# Laboratory results taken from US6239132A, “Thrombin inhibitors” (Merck & Co., Inc., priority 2000, dated 2001).
# Biological target: human α-thrombin (Homo sapiens, UniProt P00734)
# Test: In vitro assay for determining proteinase inhibition: human α-thrombin
# Format: biochemical
# Settings: 25° C., 0.05M TRIS buffer pH 7.4, 0.15M NaCl, 0.1% PEG; sar-PR-pna (or Z-GPR-afc for potent inhibitors); read-out: Inhibitory activity (Ki)
# Description: Examples of this group are listed below in Table 1. […] Values are as determined according to the in vitro assay described later in the specification.
# In Vitro Assay for Determining Proteinase Inhibition
# Assays of human α-thrombin and human trypsin were performed by the methods substantially as described in Thrombosis Research, Issue No. 70, page 173 (1993) by S. D. Lewis et al.
# The assays were carried out at 25° C. in 0.05M TRIS buffer pH 7.4, 0.15M NaCl, 0.1% PEG. Trypsin assays also contained 1 mM CaCl2.
# Concentrations of stock solutions of Z-GPR-afc were determined from measurements of absorbance at 380 nm of the 7-amino-4-trifluoromethyl coumarin produced upon complete hydrolysis of an aliquot of the stock solution by thrombin.
# Times required to achieve equilibration between enzyme and inhibitor were determined in control experiments. Initial velocities of product formation in the absence (Vo) or presence of inhibitor (Vi) were measured. Assuming competitive inhibition, and that unity is negligible compared Km /[S], […] (where [S], [I], and e respectively represent the total concentrations, of substrate, inhibitor and enzyme), the equilibrium constant (Ki) for dissociation of the inhibitor from the enzyme can be obtained from the dependence of Vo /Vi on [I] shown in equation 1: […]
row,Ki,Compound
1,< 0.1 µM,Cc1cc2c(c(=O)n1CC(=O)NCc1cc3cc[nH]c3cn1)NC(=O)OC2(C)C
2,< 0.1 µM,Cc1cc2c(c(=O)n1CC(=O)NCc1cccc(Cl)c1)NC(=O)OC2(C(C)C)C(C)C
3,< 0.1 µM,CCC1(CC)OC(=O)Nc2c1cc(C)n(CC(=O)NCc1ccc(N)nc1C)c2=O
4,< 0.1 µM,Cc1cc2c(c(=O)n1CC(=O)NCc1cc3cc[nH]c3cn1)NC(=O)OC2(CC1CC1)CC1CC1
